Results on three compounds are retold here after patent US10800814B2, “Cyclic peptidomimetics, compositions containing them and their use in the treatment of diseases associated with angiogenesis” (priority 2015, dated 2020).

This assay has as its target T1, VEGF165/NRP-1 (Rattus norvegicus, UniProt Q9QWJ9).
T1 construct: purchased R&D Systems
T1 sequence (Q9QWJ9 22-854 limits assumed): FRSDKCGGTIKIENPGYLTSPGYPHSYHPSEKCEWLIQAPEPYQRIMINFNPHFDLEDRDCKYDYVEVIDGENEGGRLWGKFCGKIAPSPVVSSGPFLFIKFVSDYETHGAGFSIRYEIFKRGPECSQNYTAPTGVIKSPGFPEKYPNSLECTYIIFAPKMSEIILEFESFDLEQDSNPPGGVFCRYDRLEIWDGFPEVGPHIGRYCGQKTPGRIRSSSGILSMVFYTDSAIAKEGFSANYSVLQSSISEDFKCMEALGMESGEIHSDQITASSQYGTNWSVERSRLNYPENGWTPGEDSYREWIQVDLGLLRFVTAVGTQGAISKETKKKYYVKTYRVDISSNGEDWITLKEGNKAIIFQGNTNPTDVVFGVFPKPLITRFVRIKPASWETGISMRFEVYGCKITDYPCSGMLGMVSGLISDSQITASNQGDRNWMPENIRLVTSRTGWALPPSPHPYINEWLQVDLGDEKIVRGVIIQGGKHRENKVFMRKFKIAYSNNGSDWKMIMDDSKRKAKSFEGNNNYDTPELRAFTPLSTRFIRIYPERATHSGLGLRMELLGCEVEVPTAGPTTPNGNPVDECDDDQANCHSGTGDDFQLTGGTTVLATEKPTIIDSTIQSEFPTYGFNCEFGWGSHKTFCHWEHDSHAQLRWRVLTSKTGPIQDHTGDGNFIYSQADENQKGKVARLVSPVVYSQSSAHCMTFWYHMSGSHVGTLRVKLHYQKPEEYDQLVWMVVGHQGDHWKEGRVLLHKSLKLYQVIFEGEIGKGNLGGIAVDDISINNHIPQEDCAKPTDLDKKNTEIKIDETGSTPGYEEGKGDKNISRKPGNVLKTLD
In words: biochemical. The class given is binding. As to conditions: for IC50: VEGF165/NRP-1 binding inhibition. The procedure:
Selected compounds were tested in vitro by measuring the inhibition binding of VEGF165 to NRP-1. This assay allows the determination of percentage inhibition of the tested compound at a predetermined concentration. Determination of the Inhibitory Activity of the Tested Compounds. The evaluation of the inhibitory effect of peptidomimetics was performed using an enzymatic method denoting the spectrophotometric displacement of the VEGF165 ligand from the specific receptor by the evaluated compound. The studies were performed using polystyrene 96-well plates (Maxisorb, Nunc.). The Procedure for Determining the Inhibition of VEGF165/NRP-1. To evaluate the biological inhibitory activity of selected molecules in each well of flat bottom polystyrene plate of 96-wells (Maxisorb, Nunc,) a 100 μl of a solution containing 2 μg/ml of anti-Fc IgG (Sigma-Aldrich) dissolved in a phosphate buffer PBS (PBS, Sigma) was placed. The plate was allowed to stand overnight at 4° C. The next day, wells were washed three times with 100 μl PBS, and then saturated with 2% bovine serum albumin (BSA, Sigma) in PBS in order to eliminate non-specific interactions. After 2 hours of incubation at 37° C. the following solutions were added portionwise: 50 μl of purified recombinant rat NRP1-Fc (R&D Systems, Abingdon, UK) in a solution of 20 ng/well protein dissolved in PBS-BSA 0.1% tween-80 0.005% (PBT), 50 μl of compound solution in PBT in an appropriate concentration […] The total volume of added solution was 150 μl. After an overnight incubation at 4° C., the wells were washed with PBT and treated with streptavidin-HRP polymer (horseradish peroxidase, Sigma). The plate was incubated for 1 hour at room temperature. […] After 2 hours, the absorbance was measured at wavelength of 415 nm with respect to 470 nm. […] In the control wells the tested compound was absent, but the respective concentration of DMSO was maintained. The heptapeptide A7R (ATWLPPR (SEQ ID NO:1)) was used as a positive control on every 96-well plate.

Positions of bridges follow the written chain, without caps; N, C: chain ends. Residues, ends and D or L forms follow the SMILES beside them. Chains are numbered I, II in the order given. No end group written: not given here.

For `N=C(N)NCCCC(NC(=O)C1CCC(=O)NC(CCCCN)C(=O)N2CCCC2C(=O)NC(C(=O)NC(CCCNC(=N)N)C(=O)O)CCC(=O)NC(CCCCN)C(=O)N2CCCC2C(=O)N1)C(=O)O` (stereo not drawn) [(c[Lys-Pro-Glu]-Arg-OH)2] (I: KPER-OH / II: KPER-OH; amide I:3-II:N, I:N-II:3; configuration not given here), the IC50 (as a rule, the concentration at which inhibition is half-maximal) was found to be 460 nM. That is a sub-micromolar value. The same measure, in the same setting: to `N=C(N)NCCCC(NC(=O)C1CCC(=O)NCCCCC(N)C(=O)N2CCCC2C(=O)N1)C(=O)O` (stereo not drawn) [H-c[Lys-Pro-Glu]-Arg-OH] (H-KPER-OH; lactam 1-3; configuration not given here) belongs 180 nM.

Turning to “ATWLPPR [A7R, ATWLPPR, reference compound]”, the “decrease in inhibition with decreasing concentration” value (reduction of concentrations of 10-0.3 μM) was determined as 5 fold.
